Legend:
Type in all cases: functional
[1] = Cytotoxicity against human CNSC cells assessed as cell growth after 48 hrs by SRB assay
[2] = Cytotoxicity against human breast cancer cells assessed as cell growth after 48 hrs by SRB assay; settings: Cancer cell lines
[3] = Cytotoxicity against human ovarian cancer cells assessed as cell growth after 48 hrs by SRB assay; settings: Cancer cell lines
[4] = Cytotoxicity against human colon cancer cells assessed as cell growth after 48 hrs by SRB assay; settings: Cancer cell lines
[5] = Cytotoxicity against human melanoma cells assessed as cell growth after 48 hrs by SRB assay
[6] = tested on: NSCLC; assay: Cytotoxicity against human NSCLC cells assessed as cell growth after 48 hrs by SRB assay
[7] = Cytotoxicity against human renal cancer cells assessed as cell growth after 48 hrs by SRB assay; settings: Cancer cell lines
[8] = Cytotoxicity against human leukemia cells assessed as cell growth after 48 hrs by SRB assay
[9] = Cytotoxicity against human prostate cancer cells assessed as cell growth after 48 hrs by SRB assay; settings: Cancer cell lines

Row | SMILES | GI50 [1] [µM] | GI50 [2] [µM] | GI50 [3] [µM] | GI50 [4] [µM] | GI50 [5] [µM] | GI50 [6] [µM] | GI50 [7] [µM] | GI50 [8] [µM] | GI50 [9] [µM]
1 | COc1ccc(C(=O)Cn2c(C(=O)c3ccccc3)nc3ccccc32)cc1 | 3.98 | 2.24 | 3.63 | 1.51 | 2.95 | 9.33 | 3.24 | 0.724 | 3.24
2 | COc1ccc(C(=O)c2nc3ccccc3n2CC(=O)c2ccc(Cl)cc2)cc1 | 3.39 | 3.47 | 5.25 | 2.51 | 2.45 | 14.5 | 3.72 | 0.724 | 3.02
3 | COc1ccc(C(=O)Cn2c(C(=O)c3ccc(Cl)cc3)nc3ccccc32)cc1 | 16.6 | 6.17 | 17.8 | 5.01 | 9.55 | 18.6 | 14.1 | 2.57 | 24
4 | O=C(Cn1c(C(=O)c2ccccc2)nc2ccccc21)c1ccccc1 | 83.2 | 9.33 | 100 | 63.1 | 100 | 69.2 | 87.1 | 52.5 | 72.4
5 | COc1ccc(C(=O)Cn2c(C(=O)c3ccc(OC)cc3)nc3ccccc32)cc1 | 3.31 | 2.4 | 3.02 | 1.26 | 3.24 | 15.1 | 3.89 | 0.741 | 2.95
6 | N[C@@H](Cc1ccc(N(CCCl)CCCl)cc1)C(=O)O | 7.59 | 16.2 | 6.61 | 7.76 | 8.32 | 6.76 | 10.2 | 3.31 | 32.4
7 | O=C(Cn1c(C(=O)c2ccccc2)nc2ccccc21)c1ccc(F)cc1 | 8.51 | 3.98 | 10.7 | 3.55 | 4.57 | 18.6 | 2.75 | 1.41 | 13.5
